According to ChEMBL document CHEMBL4152317, “Engineering potent mesotrypsin inhibitors based on the plant-derived cyclic peptide, sunflower trypsin inhibitor-1” (Eur J Med Chem, 2018):
Where a SMILES comes first, the peptide text is derived from it. Bridges are numbered along the chain shown (N, C = ends). [ ]: non-standard residue; d: D form. Bip = N[C@@H](Cc1ccc(-c2ccccc2)cc1)C(=O)O; 2Nal = N[C@@H](Cc1ccc2ccccc2c1)C(=O)O

How the values were obtained:
Prothrombin [1] = molecular target: T1, Prothrombin (Homo sapiens, UniProt P00734); assay: Inhibition of human alpha thrombin using Boc-VPR-MCA as substrate measured every 30 secs for 10 mins
Chymotrypsinogen A = Chymotrypsinogen A (Bos taurus, UniProt P00766); assay: Inhibition of bovine alpha-chymotrypsin using Suc-AAPF-MCA as substrate measured every 30 secs for 10 mins
[2] = molecular target: T2, Suppressor of tumorigenicity 14 protein (Homo sapiens, UniProt Q9Y5Y6); assay: Inhibition of recombinant human matriptase using Boc-QAR-MCA as substrate measured every 30 secs for 10 mins
T2 sequence (Q9Y5Y6 whole entry): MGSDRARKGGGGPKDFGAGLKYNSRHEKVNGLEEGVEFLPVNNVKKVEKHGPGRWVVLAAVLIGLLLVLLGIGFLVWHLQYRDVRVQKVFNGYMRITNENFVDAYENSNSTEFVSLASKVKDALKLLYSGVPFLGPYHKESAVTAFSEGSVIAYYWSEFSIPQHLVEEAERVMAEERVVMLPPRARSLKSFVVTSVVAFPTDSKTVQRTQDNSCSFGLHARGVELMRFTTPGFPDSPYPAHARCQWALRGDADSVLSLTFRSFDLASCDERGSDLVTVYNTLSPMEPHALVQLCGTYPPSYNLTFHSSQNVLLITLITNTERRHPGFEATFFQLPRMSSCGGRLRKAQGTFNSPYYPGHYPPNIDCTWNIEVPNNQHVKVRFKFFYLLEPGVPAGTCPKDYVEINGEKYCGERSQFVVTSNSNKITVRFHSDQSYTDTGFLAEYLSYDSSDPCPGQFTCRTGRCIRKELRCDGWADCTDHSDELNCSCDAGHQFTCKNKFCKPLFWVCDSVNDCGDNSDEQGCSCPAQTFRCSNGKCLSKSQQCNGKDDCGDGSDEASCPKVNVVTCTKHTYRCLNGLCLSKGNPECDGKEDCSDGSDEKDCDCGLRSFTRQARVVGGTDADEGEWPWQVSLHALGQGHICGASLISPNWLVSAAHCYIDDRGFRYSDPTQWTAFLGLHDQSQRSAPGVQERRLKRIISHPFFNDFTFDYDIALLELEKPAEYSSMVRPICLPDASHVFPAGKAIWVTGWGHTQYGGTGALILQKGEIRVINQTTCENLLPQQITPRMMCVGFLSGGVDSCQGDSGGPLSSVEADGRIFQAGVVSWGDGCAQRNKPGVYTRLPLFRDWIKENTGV

[3] = molecular target: T3, Suppressor of tumorigenicity 14 protein (Homo sapiens) (UniProt Q9Y5Y6); assay: Inhibition of recombinant human matriptase at 50 uM using Boc-QAR-MCA as substrate measured every 30 secs for 10 mins relative to control
T3 sequence (whole entry): T2 sequence (Q9Y5Y6 whole entry)

Serine protease 1 [4] = molecular target: T4, Serine protease 1 (Homo sapiens, UniProt P07477); assay: Inhibition of human cationic trypsin using Boc-VPR-MCA as substrate measured every 30 secs for 10 mins
T4 sequence (P07477 whole entry): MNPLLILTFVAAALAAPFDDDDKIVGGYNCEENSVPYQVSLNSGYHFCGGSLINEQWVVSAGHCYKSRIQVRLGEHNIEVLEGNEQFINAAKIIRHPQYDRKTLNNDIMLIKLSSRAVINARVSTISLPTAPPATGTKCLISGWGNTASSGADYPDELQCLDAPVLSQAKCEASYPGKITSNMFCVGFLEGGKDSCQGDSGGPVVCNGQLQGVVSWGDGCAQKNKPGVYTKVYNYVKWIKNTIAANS

Serine protease 1 [5] = molecular target: T4, Serine protease 1; assay: Potency index, ratio of SFTI-1 Ki to test compound Ki for human cationic trypsin
[6] = molecular target: Chymotrypsinogen A (Bos taurus) (UniProt P00766); assay: Inhibition of bovine alpha-chymotrypsin at 50 uM using Suc-AAPF-MCA as substrate measured every 30 secs for 10 mins relative to control
Trypsin-3 (Homo sapiens) = molecular target: T5, Trypsin-3 (Homo sapiens) (UniProt P35030); assay: Potency index, ratio of SFTI-1 Ki to test compound Ki for recombinant human mesotrypsin
T5 sequence (whole entry): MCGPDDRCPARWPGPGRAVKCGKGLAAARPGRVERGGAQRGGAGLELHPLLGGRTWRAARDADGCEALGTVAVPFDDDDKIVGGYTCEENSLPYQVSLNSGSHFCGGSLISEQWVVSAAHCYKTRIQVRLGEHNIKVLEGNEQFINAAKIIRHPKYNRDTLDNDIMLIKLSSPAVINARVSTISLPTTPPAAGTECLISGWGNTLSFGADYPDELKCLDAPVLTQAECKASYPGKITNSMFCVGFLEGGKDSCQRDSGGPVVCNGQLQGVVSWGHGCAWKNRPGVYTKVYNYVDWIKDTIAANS

Trypsin-3 = molecular target: T6, Trypsin-3 (Homo sapiens, UniProt P35030); assay: Competitive inhibition of recombinant human mesotrypsin using Z-GPR-MCA as substrate measured every 30 secs for 10 mins
T6 sequence (P35030 whole entry): T5 sequence (whole entry)

Prothrombin [7] = molecular target: T1, Prothrombin; assay: Inhibition of human alpha thrombin at 50 uM using Boc-VPR-MCA as substrate measured every 30 secs for 10 mins relative to control
Serine protease 1 [8] = molecular target: T7, Serine protease 1 (Bos taurus, UniProt P00760); assay: Inhibition of bovine beta-trypsin using Boc-QAR-MCA as substrate measured every 30 secs for 10 mins
T7 sequence (P00760 whole entry): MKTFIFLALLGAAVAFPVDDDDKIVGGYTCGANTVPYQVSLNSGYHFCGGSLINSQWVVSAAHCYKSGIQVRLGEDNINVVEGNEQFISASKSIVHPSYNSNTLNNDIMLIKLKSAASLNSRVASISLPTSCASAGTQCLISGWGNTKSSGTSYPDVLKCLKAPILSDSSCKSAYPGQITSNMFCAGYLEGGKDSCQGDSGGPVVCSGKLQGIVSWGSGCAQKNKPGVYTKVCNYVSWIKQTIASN

[9] = molecular target: T8, Serine protease 1 (Bos taurus) (UniProt P00760); assay: Potency index, ratio of SFTI-1 Ki to test compound Ki for bovine beta-trypsin
T8 sequence (whole entry): T7 sequence (P00760 whole entry)

| IC50 (Prothrombin [1]) [nM] | IC50 (Chymotrypsinogen A) [nM] | IC50 [2] [nM] | inhibition [3] [%] | Ki (Serine protease 1 [4]) [nM] | Ratio Ki (Serine protease 1 [5]) | inhibition [6] [%] | Ratio Ki (Trypsin-3 (Homo sapiens)) | Ki (Trypsin-3) [nM] | inhibition (Prothrombin [7]) [%] | Ki (Serine protease 1 [8]) [nM] | Ratio Ki [9] | Compound |
| --- | --- | --- | --- | --- | --- | --- | --- | --- | --- | --- | --- | --- |
| > 50000 | > 50000 | > 50000 | < 50 | 49 | 1630 | < 50 | 37 | 134 | < 50 | 81 | 10100 | CC[C@H](C)[C@@H]1NC(=O)[C@@H]2CCCN2C(=O)[C@@H]2CCCN2C(=O)CNC(=O)[C@H](CO)NC(=O)[C@H](CCCCN)NC(=O)[C@H]([C@@H](C)O)NC(=O)[C@@H]2CSSC[C@H](NC1=O)C(=O)N[C@@H](Cc1ccccc1)C(=O)N1CCC[C@H]1C(=O)N[C@@H](CC(=O)O)C(=O)NCC(=O)N[C@@H](CCCNC(=N)N)C(=O)N2 (cyclo(CFPDGRCTKSGPPI); disulfide 1-7) |
| – | – | – | – | – | – | – | 110 | 45 | – | – | – | CC[C@H](C)[C@@H]1NC(=O)[C@@H]2CCCN2C(=O)[C@@H]2CCCN2C(=O)[C@H](Cc2ccccc2)NC(=O)[C@H](CO)NC(=O)[C@H](CCCCN)NC(=O)[C@H]([C@@H](C)O)NC(=O)[C@@H]2CSSC[C@H](NC1=O)C(=O)N[C@@H](Cc1ccccc1)C(=O)N1CCC[C@H]1C(=O)N[C@@H](CC(=O)O)C(=O)NCC(=O)N[C@@H](CCCNC(=N)N)C(=O)N2 (cyclo(CFPDGRCTKSFPPI); disulfide 1-7) |
| – | – | – | – | – | – | – | 12 | 402 | – | – | – | CC[C@H](C)[C@@H]1NC(=O)[C@@H]2CCCN2C(=O)[C@@H]2CCCN2C(=O)[C@H](CC(=O)O)NC(=O)[C@H](CO)NC(=O)[C@H](CCCCN)NC(=O)[C@H]([C@@H](C)O)NC(=O)[C@@H]2CSSC[C@H](NC1=O)C(=O)N[C@@H](Cc1ccccc1)C(=O)N1CCC[C@H]1C(=O)N[C@@H](CC(=O)O)C(=O)NCC(=O)N[C@@H](CCCNC(=N)N)C(=O)N2 (cyclo(CFPDGRCTKSDPPI); disulfide 1-7) |
| – | – | – | – | 0.03 | – | – | – | – | – | – | – | CC[C@H](C)[C@@H]1NC(=O)[C@@H]2CCCN2C(=O)[C@@H]2CCCN2C(=O)[C@H]([C@@H](C)CC)NC(=O)[C@H](CO)NC(=O)[C@H](CCCCN)NC(=O)[C@H]([C@@H](C)O)NC(=O)[C@@H]2CSSC[C@H](NC1=O)C(=O)N[C@@H](Cc1ccccc1)C(=O)N1CCC[C@H]1C(=O)N[C@@H](CC(=O)O)C(=O)NCC(=O)N[C@@H](CCCNC(=N)N)C(=O)N2 |
| – | – | – | – | 100 | 3330 | – | 13 | 369 | – | 196 | 24500 | CC[C@H](C)[C@@H]1NC(=O)[C@@H]2CCCN2C(=O)[C@@H]2CCCN2C(=O)CNC(=O)[C@H](CO)NC(=O)[C@H](CCCNC(=N)N)NC(=O)[C@H]([C@@H](C)O)NC(=O)[C@@H]2CSSC[C@H](NC1=O)C(=O)N[C@@H](Cc1ccccc1)C(=O)N1CCC[C@H]1C(=O)N[C@@H](CC(=O)O)C(=O)NCC(=O)N[C@@H](CCCNC(=N)N)C(=O)N2 (cyclo(CFPDGRCTRSGPPI); disulfide 1-7) |
| – | – | – | – | 2.6 | 87 | – | 131 | 38 | – | 0.23 | 29 | CC[C@H](C)[C@@H]1NC(=O)[C@@H]2CCCN2C(=O)[C@@H]2CCCN2C(=O)[C@H](Cc2ccc3ccccc3c2)NC(=O)[C@H](CO)NC(=O)[C@H](CCCNC(=N)N)NC(=O)[C@H]([C@@H](C)O)NC(=O)[C@@H]2CSSC[C@H](NC1=O)C(=O)N[C@@H](Cc1ccccc1)C(=O)N1CCC[C@H]1C(=O)N[C@@H](CC(=O)O)C(=O)NCC(=O)N[C@@H](CCCNC(=N)N)C(=O)N2 (cyclo([2Nal]PPICFPDGRCTRS); disulfide 5-11) |
| – | – | – | – | 0.87 | 29 | – | 191 | 26 | – | 0.046 | 6 | CC[C@H](C)[C@@H]1NC(=O)[C@@H]2CCCN2C(=O)[C@@H]2CCCN2C(=O)[C@H](Cc2ccc3ccccc3c2)NC(=O)[C@H](CO)NC(=O)[C@H](CCCCN)NC(=O)[C@H]([C@@H](C)O)NC(=O)[C@@H]2CSSC[C@H](NC1=O)C(=O)N[C@@H](Cc1ccccc1)C(=O)N1CCC[C@H]1C(=O)N[C@@H](CC(=O)O)C(=O)NCC(=O)N[C@@H](CCCNC(=N)N)C(=O)N2 (cyclo([2Nal]PPICFPDGRCTKS); disulfide 5-11) |
| – | – | – | – | 1.9 | 63 | – | 177 | 28 | – | 0.17 | 21 | CC[C@H](C)[C@@H]1NC(=O)[C@@H]2CCCN2C(=O)[C@@H]2CCCN2C(=O)[C@H](Cc2ccc(-c3ccccc3)cc2)NC(=O)[C@H](CO)NC(=O)[C@H](CCCNC(=N)N)NC(=O)[C@H]([C@@H](C)O)NC(=O)[C@@H]2CSSC[C@H](NC1=O)C(=O)N[C@@H](Cc1ccccc1)C(=O)N1CCC[C@H]1C(=O)N[C@@H](CC(=O)O)C(=O)NCC(=O)N[C@@H](CCCNC(=N)N)C(=O)N2 (cyclo([Bip]PPICFPDGRCTRS); disulfide 5-11) |
| – | – | – | – | 0.76 | 25 | – | 142 | 35 | – | 0.062 | 8 | CC[C@H](C)[C@@H]1NC(=O)[C@@H]2CCCN2C(=O)[C@@H]2CCCN2C(=O)[C@H](Cc2ccc(-c3ccccc3)cc2)NC(=O)[C@H](CO)NC(=O)[C@H](CCCCN)NC(=O)[C@H]([C@@H](C)O)NC(=O)[C@@H]2CSSC[C@H](NC1=O)C(=O)N[C@@H](Cc1ccccc1)C(=O)N1CCC[C@H]1C(=O)N[C@@H](CC(=O)O)C(=O)NCC(=O)N[C@@H](CCCNC(=N)N)C(=O)N2 (cyclo([Bip]PPICFPDGRCTKS); disulfide 5-11) |
| – | – | – | – | – | – | – | 15 | 335 | – | – | – | CC[C@H](C)[C@@H]1NC(=O)[C@@H]2CCCN2C(=O)[C@@H]2CCCN2C(=O)[C@H](CO)NC(=O)[C@H](CO)NC(=O)[C@H](CCCCN)NC(=O)[C@H]([C@@H](C)O)NC(=O)[C@@H]2CSSC[C@H](NC1=O)C(=O)N[C@@H](Cc1ccccc1)C(=O)N1CCC[C@H]1C(=O)N[C@@H](CC(=O)O)C(=O)NCC(=O)N[C@@H](CCCNC(=N)N)C(=O)N2 (cyclo(CFPDGRCTKSSPPI); disulfide 1-7) |
